The source of these data is patent publication US11649218B2, “C-Abl tyrosine kinase inhibitory compound embodiments and methods of making and using the same” (The USA, as represented by the Secretary, Dept. of Health …, priority 2018, dated 2023).

For data set [1], the system named is hippocampal neurons. Description: Neuroprotection against Aβ fibrils, MTT assay. Format: cell-based. The following applies: 0.01, 0.1 and 1 μM; 5 μM Aβ peptide, 24 hours. How it is done:
Compound embodiments NCGC00373060 and NCGC00373056 also conferred neuroprotection against Aβ fibrils. […] Additional data from other compounds are provided by FIGS. 8C-8E. Neurons were incubated with 5 μM Aβ peptide in presence of the different compound concentrations for 24 hours and cell viability was evaluated by the MTT assay. Results from additional compounds are provided by FIG. 8C.
On the technique in general: Tetrazolium dyes change colour on reduction, which living cells bring about.

Data set [2] is described as follows: Pharmacokinetic profile in brain. Format: in vivo, mice. The following applies: 12.5 mg/kg IP.
In data set [3] the test system is 5XFAD mice. Description: 5XFAD AD mice model, water maze and amyloid burden. Type of data set: in vivo. The following applies: 9-month-old 5XFAD mice, 12.5 mg/kg daily for 30 days, IP. The source says:
. First, the 5XFAD mice was used as the AD model. […] .

Data set [4] concerns P. falciparum strain NF54 asexual parasites. Briefly: Asexual stage parasite growth inhibition, SYBR Green assay, 72 hours. Type of data set: cell-based. Here is the method: In this example, several of the c-Abl inhibitors were tested in the asexual […] strain of P. falciparum parasites for activity against malaria. […] The pre-diluted parasites were dispensed into a 1536-well plate (2.5 μL/well). […] The fluorescence of each well was measured at 520 nm following excitation at 490 nm using a ViewLux platereader (PerkinElmer).

Data set [5] relates to CML (K562) cell line. Briefly: K562 cell proliferation inhibition by MTT assay, 48 hours. Format: cell-based. The conditions noted are these: K562, 48 hours. How it is done:
In this example, the ability of two compound embodiments described here, NCGC00373060 and NCGC00373056, to induce cell death in the CML (K562) cell line was evaluated. The leukemia cells were incubated with different concentrations of the compounds for 48 hours, and the cell proliferation inhibition was evaluated by the MTT assay. […] The leukemia cells were incubated with different concentrations of each compound embodiment for 48 hours, and the cell proliferation inhibition was evaluated by the MTT assay.

A short description of data set [6]: Pharmacokinetic profile in plasma. Format: in vivo, mice. The following applies: 12.5 mg/kg IP.
In data set [7] the test system is neurons. Briefly: Apoptotic nuclei induced by Aβ fibrils, Hoescht staining. Type of data set: cell-based. Here is the method: Additional results from another compound embodiment, NCGC00355553, are provided by FIG. 9C. Apoptotic nuclei were evaluated by Hoescht staining.
Data set [8] concerns Leukemia K562 cell. Description: Leukemia K562 cell proliferation/viability assay (CellTiterGlo, 48 hours). Format: cell-based. More on the design: unit not given here. The conditions noted are these: K562 cells. Summed up:
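BCR-Abl-dependent K562 cells treated with compound for 48 hours in an HTS-adapted format. Viability read out with CellTiterGlo reagent.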
Background: ATP-based viability assays read luminescence as a measure of living cells.

The subject of data set [9] is ShSy5y neuroblastome cells. Briefly: Cholesterol accumulation induced by U18666, Filipin or PFO-GST staining. Type of data set: cell-based. The following applies: U18 0.5 μg/ml 24 hours; NCGC00373060 0.1 and 0.01 μM, Imatinib 10 uM. How it is done: Cells were fixed and then stained with Filipin Staining. […] Cells were fixed and a PFO-GST immunofluorescence was performed.

pIC50: −log10 of the molar value.

Usually pIC50 stands for the negative decadic logarithm of the IC50, by convention in mol/L. By AC50 is commonly meant the midpoint of the concentration-response curve, whichever way the signal moves. `CNS(=O)(=O)c1cccc(-c2ccc3c(c2)C(=O)Nc2cc(OC(F)(F)F)ccc2O3)c1` [NCGC00373056, N-Methyl-3-(11-oxo-8-(trifluoromethoxy)-10H-dihydrodibenzo[b,f][1,4]oxazepin-2-yl)benzenesulfonamide]: in [1], the “neuroprotection against Aβ toxicity” value was “protect neurons against the Aβ toxicity”. Also, the Brain concentration in [2] (Time 0.083) worked out at 1.291 µmol/kg; in [2] (Time 0.25) it was 2.649 µmol/kg; in data set [2] (Time 0.5), 2.658 µmol/kg; in data set [2] (Time 1) it was 3.381 µmol/kg; in data set [2] (Time 2) it was 2.212 µmol/kg; in data set [2] (Time 4) it was 1.065 µmol/kg. In addition, the Brain concentration in data set [2] (Time 7) turned out to be 0.202 µmol/kg; in [2] (Time 24), 0.004 µmol/kg. The “cognitive decline, water maze” value in data set [3] is given as “protected 5XFAD mice against the cognitive decline”. Moreover, in data set [4] (NF54), the “activity against malaria parasites” value is reported as “low single digit uM range”. Besides, in data set [4] (NF54, 72 hours), the “% Killing” value is listed as 96.5%. Also, the pIC50 in data set [4] (Plasmodium falciparum, NF54, 72 hours) was 5.87. The same compound displayed an AC50 in [5] (Homo sapiens, determined in different assays) of 500 nM. The “induction of cell death” value in [5] (MTT) was “able to induce cell death”. Besides, the Plasma concentration in [6] (Time 0.083) is 12.080 µM; in data set [6] (Time 0.25) it was 16.961 µM; in data set [6] (Time 0.5), 16.559 µM; in [6] (Time 1) it was 8.627 µM; in data set [6] (Time 2) it was 6.747 µM; in [6] (Time 4) it was 2.600 µM. The figures for the Plasma concentration in data set [6] (Time 7) and in data set [6] (Time 24) were 0.421 µM and 0.009 µM, respectively. Moreover, in data set [7], the “apoptotic nuclei induced by Aβ fibrils” value is listed as “prevention of the increases in apoptotic nuclei induced by Aβ fibrils”. For the same compound, the Efficacy in [8] is given as −78.5.

For the compound `Cc1ccc(NC(=O)c2ccc(CN3CCN(C)CC3)cc2)cc1Nc1nccc(-c2cccnc2)n1` [Imatinib], the cholesterol accumulation entry in data set [9] was “decreased the cholesterol accumulation”. For the same compound, in data set [4] (NF54, 72 hours), the “% Killing” value is listed as 111.0%. Besides, the Efficacy in data set [8] is reported as −105.5.
